The values below come from publication PMC12951562, “SH2scan: Mapping SH2 Domain-Ligand Binding Selectivity for Inhibitors and Degraders” (Journal of Medicinal Chemistry, 2026).

One may read the Kd as the concentration at which binding is half-saturated.

Holding throughout (test): biochemical
Holding throughout (format): binding

The target of assay [1] is T1, ABL1 (Homo sapiens, UniProt P00519).
T1 construct: the DNA-tagged SH2 domain concentrations used in this study were <0.1 nM; made in house; host or cells: HEK293 (transient transfection; unpurified extract)
T1 sequence (P00519 127-217 limits assumed): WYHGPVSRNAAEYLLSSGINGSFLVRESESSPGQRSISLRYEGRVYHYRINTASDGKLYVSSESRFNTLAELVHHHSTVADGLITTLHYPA
Conditions: for KD: dose-response; for remaining activity at 10 µM: primary screen, read-out: percent of DMSO vehicle control.

Assay [2] addresses T2, BLNK (Homo sapiens, UniProt Q8WV28).
T2 construct: the DNA-tagged SH2 domain concentrations used in this study were <0.1 nM; made in house; host or cells: HEK293 (transient transfection; unpurified extract)
T2 sequence (Q8WV28 346-453 limits assumed): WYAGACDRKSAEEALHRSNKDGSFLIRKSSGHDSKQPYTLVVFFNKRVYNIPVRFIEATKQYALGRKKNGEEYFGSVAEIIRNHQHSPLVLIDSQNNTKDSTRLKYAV
Conditions: primary screen, 10 μM; read-out: percent of DMSO vehicle control.

The target of assay [3] is T3, BRK (Homo sapiens, UniProt Q13882).
T3 construct: the DNA-tagged SH2 domain concentrations used in this study were <0.1 nM; made in house; host or cells: HEK293 (transient transfection; unpurified extract)
T3 sequence (Q13882 78-170 limits assumed): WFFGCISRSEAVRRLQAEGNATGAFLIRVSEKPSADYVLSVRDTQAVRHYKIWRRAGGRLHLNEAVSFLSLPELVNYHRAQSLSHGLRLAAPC
The following applies: for KD: dose-response; for remaining activity at 10 µM: primary screen, read-out: percent of DMSO vehicle control.

Assay [4] concerns the target T4, CRK (Homo sapiens, UniProt P46108).
T4 construct: the DNA-tagged SH2 domain concentrations used in this study were <0.1 nM; made in house; host or cells: HEK293 (transient transfection; unpurified extract)
Conditions: primary screen, 10 μM; read-out: percent of DMSO vehicle control.

For assay [5], the target named is T5, GRB2 (Homo sapiens, UniProt P62993).
T5 construct: the DNA-tagged SH2 domain concentrations used in this study were <0.1 nM; made in house; host or cells: HEK293 (transient transfection; unpurified extract)
T5 sequence (P62993 60-152 limits assumed): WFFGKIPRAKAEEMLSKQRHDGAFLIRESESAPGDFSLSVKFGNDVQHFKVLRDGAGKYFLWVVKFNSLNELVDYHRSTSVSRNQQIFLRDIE
The following applies: primary screen, 10 μM.

The target in assay [6] is T6, HCK (Homo sapiens, UniProt P08631).
T6 construct: the DNA-tagged SH2 domain concentrations used in this study were <0.1 nM; made in house; host or cells: HEK293 (transient transfection, unpurified extract)
T6 sequence (P08631 144-241 limits assumed): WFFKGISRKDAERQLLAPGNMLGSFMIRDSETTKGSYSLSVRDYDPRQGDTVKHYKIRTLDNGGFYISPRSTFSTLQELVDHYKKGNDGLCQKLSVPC
Conditions: primary screen, 10 μM; read-out: percent of DMSO vehicle control.

For assay [7], the target named is T7, HSH2D (Homo sapiens, UniProt Q96JZ2).
T7 construct: the DNA-tagged SH2 domain concentrations used in this study were <0.1 nM; made in house; host or cells: HEK293 (transient transfection, unpurified extract)
T7 sequence (Q96JZ2 34-125 limits assumed): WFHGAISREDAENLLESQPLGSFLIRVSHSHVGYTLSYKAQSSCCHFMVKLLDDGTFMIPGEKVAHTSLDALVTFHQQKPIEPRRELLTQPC
Conditions: for remaining activity at 10 µM: primary screen, read-out: percent of DMSO vehicle control.

Assay [8] concerns the target T8, ITK (Homo sapiens, UniProt Q08881).
T8 construct: the DNA-tagged SH2 domain concentrations used in this study were <0.1 nM; made in house; host or cells: HEK293 (transient transfection, unpurified extract)
T8 sequence (Q08881 239-338 limits assumed): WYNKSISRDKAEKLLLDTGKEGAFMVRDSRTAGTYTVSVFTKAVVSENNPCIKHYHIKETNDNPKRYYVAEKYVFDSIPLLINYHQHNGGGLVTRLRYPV
The following applies: for percent of DMSO vehicle control: primary screen, 10 μM.

Assay [9] deals with T9, LYN (Homo sapiens, UniProt P07948).
T9 construct: the DNA-tagged SH2 domain concentrations used in this study were <0.1 nM; made in house; host or cells: HEK293 (transient transfection, unpurified extract)
T9 sequence (P07948 129-226 limits assumed): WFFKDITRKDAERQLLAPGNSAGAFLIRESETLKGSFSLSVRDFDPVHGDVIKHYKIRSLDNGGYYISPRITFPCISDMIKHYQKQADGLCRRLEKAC
The following applies: primary screen, 10 μM; read-out: percent of DMSO vehicle control.

Assay [10] has as its target T10, MIST (Homo sapiens, UniProt Q7Z7G1).
T10 construct: the DNA-tagged SH2 domain concentrations used in this study were <0.1 nM; made in house; host or cells: HEK293 (transient transfection, unpurified extract)
T10 sequence (Q7Z7G1 309-419 limits assumed): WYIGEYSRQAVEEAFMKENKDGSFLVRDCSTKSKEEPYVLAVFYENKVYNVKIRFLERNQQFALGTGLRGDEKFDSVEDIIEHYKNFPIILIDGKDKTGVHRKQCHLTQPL
Conditions: primary screen, 10 μM; read-out: percent of DMSO vehicle control.

For assay [11], the target named is T11, PIK3R1(SH2dom.N-term.) (Homo sapiens, UniProt P27986).
T11 construct: SH2dom.N-term. denotes SH2 domain closest to N-terminus of protein; made in house; host or cells: HEK293 (transient transfection, unpurified extract)
T11 sequence (P27986 333-428 limits assumed): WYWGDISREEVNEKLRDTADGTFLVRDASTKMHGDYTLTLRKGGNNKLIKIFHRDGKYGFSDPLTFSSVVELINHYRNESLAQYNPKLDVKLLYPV
Conditions: primary screen, 10 μM; read-out: percent of DMSO vehicle control.

Assay [12] addresses T12, PLCG2(SH2dom.C-term.) (Homo sapiens, UniProt P16885).
T12 construct: SH2dom.C-term. denotes SH2 domain closest to C-terminus of protein; made in house; host or cells: HEK293 (transient transfection, unpurified extract)
T12 sequence (P16885 646-735 limits assumed): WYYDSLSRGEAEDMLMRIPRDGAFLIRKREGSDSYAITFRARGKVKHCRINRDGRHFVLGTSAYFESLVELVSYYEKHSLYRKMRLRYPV
The following applies: primary screen, 10 μM; read-out: percent of DMSO vehicle control.

For assay [13], the target named is T13, PTPN6(SH2dom.N-term.) (Homo sapiens, UniProt P29350).
T13 construct: SH2dom.N-term. denotes SH2 domain closest to N-terminus of protein; made in house; host or cells: HEK293 (transient transfection, unpurified extract)
T13 sequence (P29350 4-100 limits assumed): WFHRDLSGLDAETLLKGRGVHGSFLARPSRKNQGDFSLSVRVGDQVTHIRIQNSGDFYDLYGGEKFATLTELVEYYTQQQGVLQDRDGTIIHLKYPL
The following applies: for remaining activity at 10 µM: primary screen, read-out: percent of DMSO vehicle control.

Assay [14] concerns the target T14, SLP76 (Homo sapiens, UniProt Q13094).
T14 construct: made in house; host or cells: HEK293 (transient transfection), unpurified extract
T14 sequence (Q13094 1-533): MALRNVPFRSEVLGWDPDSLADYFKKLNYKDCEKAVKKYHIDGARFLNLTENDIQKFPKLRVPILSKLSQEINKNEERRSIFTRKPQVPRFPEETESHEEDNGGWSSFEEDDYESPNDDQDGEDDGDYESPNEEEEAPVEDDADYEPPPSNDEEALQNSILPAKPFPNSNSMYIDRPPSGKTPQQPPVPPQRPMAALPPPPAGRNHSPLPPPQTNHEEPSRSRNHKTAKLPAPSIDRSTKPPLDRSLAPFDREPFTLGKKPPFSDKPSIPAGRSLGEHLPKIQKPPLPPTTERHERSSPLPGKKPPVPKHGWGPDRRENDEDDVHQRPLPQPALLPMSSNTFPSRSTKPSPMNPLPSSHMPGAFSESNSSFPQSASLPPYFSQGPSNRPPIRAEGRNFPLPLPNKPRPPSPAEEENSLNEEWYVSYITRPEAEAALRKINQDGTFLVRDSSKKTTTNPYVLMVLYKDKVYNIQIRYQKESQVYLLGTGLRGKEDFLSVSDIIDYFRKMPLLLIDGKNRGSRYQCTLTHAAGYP
Conditions: primary screen, 10 μM; read-out: percent of DMSO vehicle control.

The target of assay [15] is T15, SRC (Homo sapiens, UniProt P12931).
T15 construct: made in house; host or cells: HEK293 (transient transfection), unpurified extract
T15 sequence (P12931 whole entry): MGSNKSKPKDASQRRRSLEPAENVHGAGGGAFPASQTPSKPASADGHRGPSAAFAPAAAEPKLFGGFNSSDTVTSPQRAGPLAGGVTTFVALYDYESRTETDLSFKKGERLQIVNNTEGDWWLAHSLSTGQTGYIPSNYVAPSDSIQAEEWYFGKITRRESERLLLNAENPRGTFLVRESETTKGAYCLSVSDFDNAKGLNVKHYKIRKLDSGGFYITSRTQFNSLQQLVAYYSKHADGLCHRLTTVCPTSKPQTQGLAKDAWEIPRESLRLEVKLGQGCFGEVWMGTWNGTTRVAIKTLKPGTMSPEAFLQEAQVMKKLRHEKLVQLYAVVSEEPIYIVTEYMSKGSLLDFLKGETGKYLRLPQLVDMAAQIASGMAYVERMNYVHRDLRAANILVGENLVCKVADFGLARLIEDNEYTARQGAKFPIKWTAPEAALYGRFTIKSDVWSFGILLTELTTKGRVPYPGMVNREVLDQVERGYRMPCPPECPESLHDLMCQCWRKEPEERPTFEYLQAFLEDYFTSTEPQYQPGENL
The following applies: primary screen, 10 μM; read-out: percent of DMSO vehicle control.

Assay [16] has as its target T16, STAP1 (Homo sapiens, UniProt Q9ULZ2).
T16 construct: made in house; host or cells: HEK293 (transient transfection), unpurified extract
T16 sequence (Q9ULZ2 1-295): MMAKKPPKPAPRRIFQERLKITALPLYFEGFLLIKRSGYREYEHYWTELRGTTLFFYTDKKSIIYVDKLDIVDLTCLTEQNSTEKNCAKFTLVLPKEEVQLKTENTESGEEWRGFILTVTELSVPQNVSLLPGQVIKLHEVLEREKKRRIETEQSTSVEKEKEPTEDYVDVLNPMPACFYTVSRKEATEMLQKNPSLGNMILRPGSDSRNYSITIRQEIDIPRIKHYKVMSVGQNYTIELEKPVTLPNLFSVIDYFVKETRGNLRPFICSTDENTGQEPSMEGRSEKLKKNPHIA
Conditions: primary screen, 10 μM; read-out: percent of DMSO vehicle control.

T4 sequence (P46108 13-118 limits assumed): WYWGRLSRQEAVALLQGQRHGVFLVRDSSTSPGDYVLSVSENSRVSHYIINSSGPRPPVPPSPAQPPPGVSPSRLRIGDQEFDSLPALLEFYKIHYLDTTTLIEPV

As for `O=C(COc1ccc2cc(C(=O)Nc3ccccc3)ccc2c1)NCc1ccc(OP(=O)(O)O)c(OP(=O)(O)O)c1` [Stafib-1], the KD entry in assay [1], in [3], in [7] (dose-response) and in assay [8] (dose-response) was “No Hit” in each case. In addition, the remaining activity at 10 µM was found to be 19.9% in assay [1]; 158% in assay [2]; 5.4 ± 60.2% in assay [3]; 90.2 ± 5.9% in [4]; 77 ± 19.3% in assay [6]; 27.1% in assay [7]. Moreover, the remaining activity at 10 µM in assay [9] amounted to 95.6 ± 22.4%; in assay [10], 96.8 ± 9.3%; in assay [11], 88.8 ± 24.3%; in [12], 80.4 ± 8.2%; in assay [13], 27.8 ± 4.2%; in assay [14] it was 97.5 ± 31%. The values for the remaining activity at 10 µM in assay [15] and in assay [16] were 90.6 ± 5.2% and 92 ± 6.8%, respectively. Moreover, the “percent of DMSO vehicle control” value came to 79.5±8.8% in assay [5] and 0±61.0% in assay [8]. For the same compound, in assay [13] (dose-response, read-out: KD), the Kd is 13 µM.
Take `CC(C)(C)[C@H](NC(=O)/C=C/c1ccc(OP(=O)(O)O)cc1)C(=O)N1CCC[C@H]1C(=O)N(c1ccccc1)c1ccc(I)cc1` [STAT6-IN-3]: the KD result in assay [1] and in [3] was “No Hit” each time. In addition, the remaining activity at 10 µM in [1] is 0%; in assay [2] it was 145 ± 22.5%; in assay [3], 4.1 ± 47.5%; in [4] it was 80.4 ± 9.5%; in assay [6] it was 77.4 ± 4.3%; in assay [7], 19.6 ± 29.7%. The remaining activity at 10 µM in assay [9] stood at 82.3 ± 17.1%; in [10], 102 ± 8.1%; in assay [11] it was 85.6 ± 12.9%; in assay [12], 75.3 ± 10%; in assay [13] it was 77.4 ± 15.8%; in assay [14], 93.6 ± 30.3%. Further, the remaining activity at 10 µM in [15] stood at 67 ± 21%; in [16] it was 76.9 ± 9.2%. For the same compound, the “percent of DMSO vehicle control” value in assay [5] was 72.4±21.8%; in assay [8], 0±54.7%. In addition, the Kd in assay [7] (dose-response, read-out: KD) worked out at 7.6 ± 1.6 µM.
